Data as given in ChEMBL document CHEMBL1201862, “PubChem BioAssay data set” (2004).
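Growth conditions: 96-well plates. Treatment: test compound, 48 hours, 5 concentrations. Analysis: linear interpolation between bracketing concentrations; unreached endpoints set to highest concentration. GI50 = concentration required for 50% inhibition of growth.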 Active and inactive are the calls of the source. No stated cut-off is given here; in the data, active = GI50 up to about 1.1 µM and inactive = higher.

Experiments:
Assay in all cases: NCI anticancer screen, dose series, 48 h
M19-MEL = system: M19-MEL
SNB-78 = system: SNB-78
IGROV-1 = system: IGROV-1
A549 = system: A549
TK-10 = system: TK-10
NCI-H226 = system: NCI-H226
NCI-H460 = system: NCI-H460
OVCAR-4 = system: OVCAR-4
OVCAR-8 = system: OVCAR-8
UO-31 = system: UO-31
CCRF-CEM = system: CCRF-CEM
SK-MEL-5 = system: SK-MEL-5
KM12 = system: KM12
SK-MEL-2 = system: SK-MEL-2
SF-539 = system: SF-539
OVCAR-3 = system: OVCAR-3
M14 = system: M14
RXF 631 = system: RXF 631
A498 = system: A498
SW-620 = system: SW-620
MOLT-4 = system: MOLT-4
EKVX = system: EKVX
HL-60 = system: HL-60
ACHN = system: ACHN
NCI-H23 = system: NCI-H23
DLD-1 = system: DLD-1
HOP-62 = system: HOP-62
HCT-116 = system: HCT-116
UACC-62 = system: UACC-62
DMS-114 = system: DMS-114
SF-295 = system: SF-295
786-0 = system: 786-0
SK-OV-3 = system: SK-OV-3
HCT-15 = system: HCT-15
KM-20L2 = system: KM-20L2
HT-29 = system: HT-29
RPMI-8226 = system: RPMI-8226
Malme-3M = system: Malme-3M
UACC-257 = system: UACC-257
XF498 = system: XF498
OVCAR-5 = system: OVCAR-5
RXF 393 = system: RXF 393
DMS-273 = system: DMS-273
SK-MEL-28 = system: SK-MEL-28
HCC 2998 = system: HCC 2998
K562 = system: K562
CAKI-1 = system: CAKI-1
SNB-75 = system: SNB-75
U-251 = system: U-251

For Cn1cc(C(=O)/C(Cl)=C(\Cl)C(=O)O)c2ccccc21, the GI50 (M19-MEL) was > 100 µM (inactive), the GI50 (SNB-78) was > 100 µM (inactive) and the GI50 (IGROV-1) was > 100 µM (inactive). The GI50 (A549) was > 100 µM (inactive), the GI50 (TK-10) was > 100 µM (inactive) and the GI50 (NCI-H226) was > 100 µM (inactive). For the same compound, the GI50 (NCI-H460) was > 100 µM (inactive), the GI50 (OVCAR-4) was > 100 µM (inactive) and the GI50 (OVCAR-8) was > 100 µM (inactive). For the same compound, the GI50 (UO-31) was > 100 µM (inactive), the GI50 (CCRF-CEM) was > 100 µM (inactive) and the GI50 (SK-MEL-5) was > 100 µM (inactive). For the same compound, the GI50 (KM12) was > 100 µM (inactive), the GI50 (SK-MEL-2) was > 100 µM (inactive) and the GI50 (SF-539) was > 100 µM (inactive). The GI50 (OVCAR-3) was > 100 µM (inactive), the GI50 (M14) was > 100 µM (inactive) and the GI50 (RXF 631) was > 100 µM (inactive). The GI50 (A498) was > 100 µM (inactive), the GI50 (SW-620) was > 100 µM (inactive) and the GI50 (MOLT-4) was > 100 µM (inactive). For the same compound, the GI50 (EKVX) was > 100 µM (inactive), the GI50 (HL-60) was > 100 µM (inactive) and the GI50 (ACHN) was > 100 µM (inactive). For the same compound, the GI50 (NCI-H23) was > 100 µM (inactive), the GI50 (DLD-1) was > 100 µM (inactive) and the GI50 (HOP-62) was > 100 µM (inactive). The GI50 (HCT-116) was > 100 µM (inactive), the GI50 (UACC-62) was > 100 µM (inactive) and the GI50 (DMS-114) was > 100 µM (inactive). The GI50 (SF-295) was > 100 µM (inactive), the GI50 (786-0) was > 100 µM (inactive) and the GI50 (SK-OV-3) was > 100 µM (inactive). For the same compound, the GI50 (HCT-15) was over 100 µM, the GI50 (KM-20L2) was > 100 µM (inactive) and the GI50 (HT-29) was > 100 µM (inactive). The GI50 (RPMI-8226) was > 100 µM (inactive), the GI50 (Malme-3M) was > 100 µM (inactive) and the GI50 (UACC-257) was > 100 µM (inactive). The GI50 (XF498) was > 100 µM (inactive), the GI50 (OVCAR-5) was > 100 µM (inactive) and the GI50 (RXF 393) was > 100 µM (inactive). The GI50 (DMS-273) was > 100 µM (inactive), the GI50 (SK-MEL-28) was > 100 µM (inactive) and the GI50 (HCC 2998) was > 100 µM (inactive). For the same compound, the GI50 (K562) was > 100 µM (inactive), the GI50 (CAKI-1) was > 100 µM (inactive) and the GI50 (SNB-75) was > 100 µM (inactive). For the same compound, the GI50 (U-251) was > 100 µM (inactive).
